Assay results as given in PMC9021288 (Nature Communications, 2022).
Where “and” joins values, the source holds several entries; their conditions need not be identical. Equal entries are not always repeated.

Legend:
[1] = Plasma protein binding, human
[2] = Plasma protein binding, mouse
[3] = 8-day Dose Range Finding (DRF) rat study; assay type: in vivo, Wistar Han rats
Source text: See the summary of the study design in Supplementary Table 31. Nine-week-old Wistar (Crl:WI (Han)) rats were obtained from Charles River Laboratories (Domaine des Oncins, Saint-Germain-Nuelles, France). […] Animals were examined daily for any altered clinical signs, body weights, and food consumption. Blood samples were taken at different timepoints after the test item administration, and toxicokinetic exposure assessed under the defined experimental conditions and analyzed using Phoenix (version 6.4 and 1.4) (Supplementary Table 32). Measurements included hematology and clinical chemistry measurements. Animals were euthanized and necropsied at the end of the dosing period. At necropsy, major organ systems and tissues were collected and weighed and then examined for gross lesions as well as for microscopic changes.

[4] = tested on: human primary hepatocytes; assay: Metabolite identification in human hepatocyte relay assay
Source text: Briefly, cryopreserved human primary hepatocytes were thawed and cultured as described above.

[5] = Pharmacokinetics in dogs (cassette dosing); assay type: in vivo, Beagle dogs
Method: (§1) Subsequently, samples were spun down at 1640 g for 5-10 min at 4 °C within 30 min after collection and plasma was collected. […] Urine was collected following an intravenous dose in both rat and dog, allowing renal clearance to be estimated. Human renal clearance was estimated from dog renal clearance as previously described[40] and other human PK parameters were predicted using allometric scaling and/or in vitro clearance data. PK parameters were calculated by naïve pooled approach using WinNonLin software (Phoenix, version 6.3).

[6] = tested on: P. falciparum 3D7 trophozoite-infected RBCs, CoA pathway metabolites; assay: Metabolomics of treated infected RBCs (LC/MS); assay type: cell-based, Plasmodium falciparum
Method: P. falciparum metabolomics analysis was performed by LC/MS as previously described. Briefly, parasite cultures were tightly synchronized at the ring stage one cycle prior to extraction. Trophozoite cultures at 5-10% parasitemia were purified to >90% parasitemia by magnetic purification. Parasites were counted using a hemocytometer, aliquoted to 1 × 10^8 cells per condition in 5 ml medium and then placed into an incubator for 1 h to allow them to reach a metabolically stable state. […] Blank processing samples were also quenched in the same manner to assess background metabolite levels. The samples were centrifuged, the supernatant was collected in a new tube, dried using a nitrogen gas drying rack and stored at -80 °C until they were run on the LC/MS platform.
For each analytical run, a pooled sample was generated by combining equivalent volumes of each parasite sample to assess metabolite detection and run at the beginning, middle, and end of each analytical batch to detect any possible time-dependent sensitivity changes. The full metabolomics datasets are publicly available on the Metabolomics Workbench database under ST001985[76].

[7] = tested on: P. falciparum Dd2-B2 and NF54-HGL; assay: In vitro selection of drug-resistant parasites; assay type: cell-based, Plasmodium falciparum
Method: Drug media was changed daily until cultures were cleared and every other day subsequently. […] Recrudescence was monitored by flow cytometry on an Accuri C6 (BD Biosciences) using BD C6 Plus for 60 days using SYBR Green and MitoTracker Deep Red FM (Life Technologies) as nuclear stain and vital dye, respectively, and data were analyzed using FlowJo (Supplementary Fig. 23). […] Whole-genome sequencing was performed to test for single nucleotide polymorphisms (SNPs) or copy number variations.

[8] = Renal excretion in dogs; assay type: in vivo, dog; conditions: for Concentration (ng/ml) in urine: dog urine, individual dogs 1-3
Method: as §1, with “A blood sample from the saphenous vein was collected into heparinized capillary tubes at multiple intervals between 0.25 and 24 h after dosing. Subsequently,” for “Subsequently,”

For C[C@@H](CNC(=O)[C@H](O)C(C)(C)CO)NC(=O)c1cc(F)c(F)cc1F [MMV693183], the plasma protein binding [1] was 52%, the plasma protein binding [2] was 33% and the “cumulative exposure vs predicted human efficacious exposure” value ([3]; 30 mg/kg/day group) was over 30 fold. For the same molecule, the Liver weight ([3]; 10 and 30 mg/kg/day) was “Liver weight was unchanged”, the liver histology ([3]; 10 and 30 mg/kg/day) was “absence of liver microscopic findings” and the Liver weight ([3]; DRF 10 mg/kg/day, Females) was 6.6517 g. The Liver weight ([3]; DRF 10 mg/kg/day, Males) was 9.7817 g, the Liver weight ([3]; DRF 30 mg/kg/day, Females (two groups)) was 6.4437 g and 7.2357 g and the Liver weight ([3]; DRF 30 mg/kg/day, Males (two groups)) was 10.7203 g and 9.7543 g. The “Liver weight” value ([3]; DRF study, females, 10 mg/kg/day, individual animals) was 6.951 g and 7.042 g and 5.962 g, the “Liver weight” value ([3]; DRF study, females, 30 mg/kg/day (first column headed 30), individual animals, 30 mg/kg/day) was 7.24 g and 5.849 g and 6.242 g and the “Liver weight” value ([3]; DRF study, females, 30 mg/kg/day (second column headed 30), individual animals, 30 mg/kg/day) was 7.466 g and 7.43 g and 6.811 g. The “Liver weight” value ([3]; DRF study, males, 10 mg/kg/day, individual animals) was 9.171 g and 9.562 g and 10.612 g, the “Liver weight” value ([3]; DRF study, males, 30 mg/kg/day (first column headed 30), individual animals, 30 mg/kg/day) was 10.621 g and 11.894 g and 9.646 g and the “Liver weight” value ([3]; DRF study, males, 30 mg/kg/day (second column headed 30), individual animals, 30 mg/kg/day) was 10.364 g and 10.082 g and 8.817 g. The NOEL ([3]; eight days) was 30 mg/kg/day, the “decrease in systemic exposure day 7 vs day 1” value ([3]; predominantly males at 30 mg/kg/day) was “up to 4 fold” and the “In vitro (MS response)” value [4] was 85%. For the same molecule, the “Observed hepatic/ predicted hepatic” value ([5]; Dog) was 0.95, the “Observed total-renal = observed hepatic” value ([5]; Dog) was 10.5 mL/min/kg and the “Predicted hepatic plasma clearance” value ([5]; Dog) was 11.1 mL/min/kg. The Norm. conc i.v. ([5]; Dog, Time (hrs) 0.083333) was 1180 ng/mL and 892 ng/mL and 1160 ng/mL, the Norm. conc i.v. ([5]; Dog, Time (hrs) 0.25) was 732 ng/mL and 660 ng/mL and 906 ng/mL and the Norm. conc i.v. ([5]; Dog, Time (hrs) 0.5) was 414 ng/mL and 439 ng/mL and 345 ng/mL. For the same molecule, the Norm. conc i.v. ([5]; Dog, Time (hrs) 1) was 166 ng/mL and 228 ng/mL and 178 ng/mL, the Norm. conc i.v. ([5]; Dog, Time (hrs) 2) was 52.9 ng/mL and 68.5 ng/mL and 55.6 ng/mL and the Norm. conc i.v. ([5]; Dog, Time (hrs) 4) was 28.7 ng/mL and 29.7 ng/mL and 29.8 ng/mL. The Norm. conc i.v. ([5]; Dog, Time (hrs) 8) was 14.6 ng/mL and 21.2 ng/mL and 17.8 ng/mL, the Norm. conc i.v. ([5]; Dog, Time (hrs) 24) was 2 ng/mL and 3.19 ng/mL and 2.05 ng/mL and the Norm. conc p.o. ([5]; Dog, Time (hrs) 0.25) was 815 ng/mL and 580 ng/mL and 439 ng/mL. The Norm. conc p.o. ([5]; Dog, Time (hrs) 0.5) was 485 ng/mL and 365 ng/mL and 280.5 ng/mL, the Norm. conc p.o. ([5]; Dog, Time (hrs) 1) was 132.5 ng/mL and 118.5 ng/mL and 171.5 ng/mL and the Norm. conc p.o. ([5]; Dog, Time (hrs) 2) was 29.9 ng/mL and 28.05 ng/mL and 47.05 ng/mL. The Norm. conc p.o. ([5]; Dog, Time (hrs) 4) was 15.6 ng/mL and 14.15 ng/mL and 21.05 ng/mL, the Norm. conc p.o. ([5]; Dog, Time (hrs) 24) was 1 ng/mL and 1.115 ng/mL and the “AUC0-∞” value ([5]; i.v. 1 mg/kg, mean) was 1451 ng·h/mL. For the same molecule, the AUClast ([5]; i.v. 1 mg/kg, mean) was 1423 ng·h/mL, the Cmax ([5]; i.v. 1 mg/kg, mean) was 1077 ng/mL and the Vss_obs ([5]; i.v. 1 mg/kg, mean) was 1.79 L/kg. The CLtotal ([5]; i.v. 1 mg/kg, mean, 1 mg/kg) was 11.5 mL/min/kg and 11.52 mL/min/kg, the T1/2 ([5]; i.v. 1 mg/kg, mean, 1 mg/kg) was 4.2 h and 4.23 h and the “AUC0-∞” value ([5]; p.o. 2 mg/kg, mean) was 1902 ng·h/mL. It also gave an AUClast ([5]; p.o. 2 mg/kg, mean) of 1844 ng·h/mL, a Cmax ([5]; p.o. 2 mg/kg, mean) of 1286 ng/mL and a T1/2 ([5]; p.o. 2 mg/kg, mean) of 2.93 h. The F ([5]; p.o. 2 mg/kg, mean, 2 mg/kg) was 64% and 63.7%, the Tmax ([5]; p.o. 2 mg/kg, mean, 2 mg/kg) was 0.333 h and the “Fold change 4'P-Pan” value ([6]; 24 nM) was 0.6372 and 0.7412. For the same molecule, the “Fold change Ac-CoA” value ([6]; 24 nM) was 0.5886 and 0.6667, the “Fold change CoA” value ([6]; 24 nM) was 1.122 and the “Fold change Pan” value ([6]; 24 nM) was 0.8146 and 0.8416. The “Fold change 4'P-Pan” value ([6]; 240 nM) was 0.3498 and 0.3568, the “Fold change CoA” value ([6]; 240 nM) was 1.064 and the “Fold change Pan” value ([6]; 240 nM) was 1.253 and 0.7224. The “effect on endogenous metabolites” value ([6]; dose-dependent) was “reduced acetyl-CoA and 4-phosphopantothenate levels”, the “minimum inoculum for resistance development” value [7] was 10^9 and the “Frequency (# of parasite positive flasks or wells)” value (“Frequency” for short) ([7]; 1x10^5 Dd2-B2, 15 nM) was 0/24. The “Frequency” value ([7]; 1x10^7 Dd2-B2, 15-22 nM / 10.5-14 nM) was 0/3, the “Frequency” value ([7]; 1x10^8 Dd2-B2, 10.5-14 nM) was 0/3 and the “Frequency” value ([7]; 1x10^9 Dd2-B2, 12-27 nM) was 3/3. For the same molecule, the “Frequency” value ([7]; NF54, 7 nM) was 2/2, the “Observed renal plasma clearance” value ([8]; Dog) was 1.0 mL/min/kg and the Dose in urine ([8]; Mean) was 0.0332. For the same molecule, the Total in urine ([8]; Mean) was 384 µg, the “Concentration (ng/ml) in urine” value ([8]; interval 0 to 4 h) was 2790 ng/mL and 4550 ng/mL and 7660 ng/mL and the “Concentration (ng/ml) in urine” value ([8]; interval 8 to 24 h) was 6890 ng/mL and 3700 ng/mL. For the same molecule, the “drug eliminated in urine” value ([8]; dogs, i.v. 1 mg/kg, dog with 170 ml urine) was 8.9%, the Dose in urine ([8]; i.v. 1 mg/kg, total per animal 1-3, 1 mg/kg) was 0.002 and 0.089 and 0.009 and the Total in urine ([8]; total 0-24 h per animal 1-3) was 22.32 µg and 1030.9 µg and 98.8 µg.
